Measurements published in US20230310348A1, “USE OF ALVERINE OR ITS DERIVATIVES FOR THE TREATMENT OF MITOCHONDRIAL DISEASES OR DYSFUNCTION ASSOCIATED WITH MITOCHONDRIAL COMPLEX I DEFICIENCIES” (ASSOCIATION FRANCAISE CONTRE LES MYOPATHIES, priority 2020, published 2023).

Columns and labels:
[1] = tested on: nuo-51^A357V mutant of Podospora anserina; test: drug drop test: restoration of thermosensitive growth (halo); format: cell-based; conditions: 10 mM in DMSO on 6 mm discs, 33° C.
Protocol: The mutant mycelium, scratched from a 2 days culture on M2 plates at 28° C. was mixed in a FastPrep apparatus and spread on fresh square plates. 6 mm cellulose discs are then dropped and spotted with the various compounds at 10 mM in DMSO and plates were incubated at 33° C. Within 4 to 6 days a putative resumption of growth around filters (i.e. halo) is observed.

[2] = in e.g. alcohol or chloroform; cited from earlier work

Structure (SMILES) | toxicity in drug drop test [1] | thermosensitive growth of the mutant (halo around filter) ([1]; 4 to 6 days) | solubility [2]
CCN(CCCc1ccccc1)CCCc1ccc(O)cc1 [4-Hydroxy Alverine, 4-hydroxy Alverine] | without toxicity | rescue the growth | –
CCN(CCCc1ccccc1)CCCc1ccccc1 [Alverine, N-ethyl-3-phenyl-N-(3-phenylpropyl)propan-1-amine] | – | – | high solubility
